Measurements published in patent US8563594B2, “S1P3 receptor inhibitors for treating pain” (Allergan, Inc., priority 2007, dated 2013).

Target: S1P1 receptor (Homo sapiens (Human), UniProt P21453)
Test: FLIPR assay (Ca2+ response), S1P1 receptor
Assay type: cell-based
Conditions: receptor activity at highest dose tested (10 μM) relative to 5 nM sphingosine-1-phosphate

Chain of S1P1 receptor (P21453 whole entry): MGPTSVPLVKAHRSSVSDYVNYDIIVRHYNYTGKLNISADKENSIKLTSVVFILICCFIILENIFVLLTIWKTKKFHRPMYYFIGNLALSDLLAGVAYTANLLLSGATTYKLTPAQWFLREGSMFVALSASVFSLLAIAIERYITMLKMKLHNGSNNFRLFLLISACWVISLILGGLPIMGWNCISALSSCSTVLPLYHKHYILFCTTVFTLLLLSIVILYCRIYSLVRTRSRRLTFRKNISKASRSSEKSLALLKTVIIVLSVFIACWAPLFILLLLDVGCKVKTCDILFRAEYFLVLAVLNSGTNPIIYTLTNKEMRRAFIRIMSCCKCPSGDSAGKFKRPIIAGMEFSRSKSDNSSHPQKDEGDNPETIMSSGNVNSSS

S1P1 percent efficacy (in parenthesis) | S1P1 percent efficacy (in parenthesis) (selective inhibitor table) | SMILES
36% | – | Cc1ccc(-c2ccc(CNCCCP(=O)(O)O)nc2-c2ccccc2)cc1 [Compound 147]
57% | – | CCc1ccc(-c2ccc(CNCCCP(=O)(O)O)nc2-c2ccccc2)cc1 [Compound 148]
69% | – | CCCc1ccc(-c2ccc(CNCCCP(=O)(O)O)nc2-c2ccccc2)cc1 [Compound 154]
– | 57% | CCc1ccc(-c2ccc(CNCCCP(=O)(O)O)nc2-c2ccccc2)cc1 [drawing 165]
